Laboratory results from US7964621B2, “Thioamide compounds, method of making and method of using thereof” (Merial Limited, priority 2008, dated 2011).

Test system: Haemonchus contortus
Test: Method B: screening against Haemonchus contortus in vivo on Mongolian jirds (Meriones unguiculatus)
Conditions: oral gavage, dose as low as 1 or 10 mg/kg, necropsy 3 days after treatment, vs placebo control group
Experimental: Method B: Screening Method to Test Activity of Compounds Against Haemonchus contortus in Vivo on Mongolian Jirds (Meriones unguiculatus). Mongolian jirds, at least five weeks old, were immunosuppressed and artificially infected with ca. 1000 ensheathed Haemonchus contortus third instar larvae. Six days after infection, the jirds were treated by oral gavage with the test compounds, dissolved in a mixture of 2 parts DMSO and 1 part polyethylene glycol (PEG400), at doses of 100 mg/kg and 10 mg/kg. Jirds treated only with the placebo (2 parts DMSO and 1 part PEG400) served as controls. On day 9 (3 days after treatment) the jirds were euthanized and necropsied for recovery of parasites from the stomach. Efficacy was calculated as the average % reduction in the number of worms in each test group compared with the average number of worms from the control group. […] Compound number 1, provided at least 95% reduction in nematode infestation at a dose as low as 1 or 10 mg/kg.

Structure (SMILES)	reduction in nematode infestation
CC(Cn1nc2c(Cl)cc(Cl)c(Cl)c2n1)(NC(=O)c1ccc(OC(F)(F)F)cc1)C(N)=S (stereo not drawn) [Compound 1, N-[1-Methyl-1-thiocarbamoyl-2-(4,5,7-trichloro-2H-benzotriazol-2-yl)-ethyl]-4-trifluoromethoxybenzamide]	at least 95%

Test system: Haemonchus contortus
Test: Method A: screening of compounds against Haemonchus contortus L1 larvae in microtitre plate (development to L3)
Conditions: 96 h, test concentration 0.01 ppm, 4 days assessment, 27° C., read-out: motility inhibition
Experimental: Method A: Screening Method to Test Activity of Compounds Against Haemonchus contortus. Twenty L1 Haemonchus contortus larvae were added to wells of a microtitre plate containing a nutrient medium and the test compound in DMSO. The microtitre plate was then held at 27° C. where the L1 larvae were allowed to develop. An analysis was conducted at 4 days to determine successful development to the L3 stage. Larvae exposed to DMSO and no test compound served as controls. Compounds numbers 3, 4, 6 and 8 gave at least 90% motility inhibition at a test concentration of 0.15 ppm at the 4 days assessment. Compounds numbers 1, 2, 5 and 7 gave at least 90% motility inhibition at a test concentration of 0.01 ppm at the 4 days assessment.

Structure (SMILES)	inhibition at 0.01 ppm
CC(Cn1nc2c(Cl)cc(Cl)c(Cl)c2n1)(NC(=O)c1ccc(OC(F)(F)F)cc1)C(N)=S (stereo not drawn) [Compound 1, N-[1-Methyl-1-thiocarbamoyl-2-(4,5,7-trichloro-2H-benzotriazol-2-yl)-ethyl]-4-trifluoromethoxybenzamide]	≥ 90%
CC(Cn1nc2c(Cl)cc(Cl)c(Cl)c2n1)(NC(=O)c1ccc(SC(F)(F)F)cc1)C(N)=S (stereo not drawn) [Compound 2]	≥ 90%
CC(COc1cc(C#N)ccc1C(F)(F)F)(NC(=O)c1ccc(SC(F)(F)F)cc1)C(N)=S (stereo not drawn) [Compound 5]	≥ 90%
CC(COc1cc(C#N)ccc1C(F)(F)F)(NC(=O)c1ccc(OC(F)(F)F)cc1)C(N)=S (stereo not drawn) [Compound 7, N-[2-(5-Cyano-2-trifluoromethylphenoxy)-1-methyl-1-thiocarbamoyl-ethyl]-4-trifluoromethoxybenzamide]	≥ 90%

Same assay, conditions: 96 h, test concentration 0.15 ppm, 4 days assessment, 27° C., read-out: motility inhibition

Structure (SMILES)	inhibition at 0.15 ppm
CC(COc1ccc(C#N)cc1C(F)(F)F)(NC(=O)c1ccc(OC(F)(F)F)cc1)C(N)=S (stereo not drawn) [Compound 3, N-[2-(4-Cyano-2-trifluoromethylphenoxy)-1-methyl-1-thiocarbamoyl-ethyl]-4-trifluoromethoxybenzamide]	≥ 90%
CC(COc1ccc(C(N)=S)cc1C(F)(F)F)(NC(=O)c1ccc(OC(F)(F)F)cc1)C(N)=S (stereo not drawn) [Compound 4, N-[1-Methyl-1-thiocarbamoyl-2-(4-thiocarbamoyl-2-trifluoromethylphenoxy)-ethyl]-4-trifluoromethoxybenzamide]	≥ 90%
CC(COc1cc(C(N)=S)ccc1C(F)(F)F)(NC(=O)c1ccc(SC(F)(F)F)cc1)C(N)=S (stereo not drawn) [Compound 6]	≥ 90%
CC(COc1cc(C(N)=S)ccc1C(F)(F)F)(NC(=O)c1ccc(OC(F)(F)F)cc1)C(N)=S (stereo not drawn) [Compound 8]	≥ 90%
